# Tests used:
# [1] = test system: blackgrass (Alopecurus myosuroides); assay: Test A postemergence, blackgrass; type: in vivo; conditions: Alopecurus myosuroides, post-emergence, 240 h, 0 to 100 scale (0 no effect, 100 complete control), read-out: Plant response rating, Blackgrass; for pest or weed control at 31 g/ha: 31 g ai/ha; for pest or weed control at 125 g/ha: 125 g ai/ha
# [2] = test system: wheat (Triticum aestivum); assay: Test A postemergence, wheat; type: in vivo; conditions: Triticum aestivum, post-emergence, 240 h, 0 to 100 scale (0 no effect, 100 complete control), read-out: Plant response rating, Wheat; for plant injury at 31 g/ha: 31 g ai/ha; for plant injury at 125 g/ha: 125 g ai/ha
# [3] = test system: ragweed (common ragweed, Ambrosia elatior); assay: Test A postemergence, ragweed; type: in vivo; conditions: Ambrosia artemisiifolia, post-emergence, 240 h, 0 to 100 scale (0 no effect, 100 complete control), read-out: Plant response rating, Ragweed; for pest or weed control at 31 g/ha: 31 g ai/ha; for pest or weed control at 125 g/ha: 125 g ai/ha
# [4] = test system: barnyardgrass (Echinochloa crus-galli); assay: Test A preemergence, barnyardgrass; type: in vivo; conditions: Echinochloa crus-galli, pre-emergence, 240 h, 0 to 100 scale (0 no effect, 100 complete control), read-out: Plant response rating, Barnyardgrass; for pest or weed control at 31 g/ha: 31 g ai/ha; for pest or weed control at 125 g/ha: 125 g ai/ha
# rice (Oryza sativa) = assay: Test B flooded paddy test, rice; conditions: Oryza sativa, read-out: Plant response rating, Rice (0 to 100 scale, 0 is no effect, 100 is complete control)
# corn (Zea mays) = assay: Test A postemergence, corn; type: in vivo; conditions: Zea mays, post-emergence, 240 h, 0 to 100 scale (0 no effect, 100 complete control); for Corn plant response rating (crop injury, 0 = no effect, 100 = complete kill) at 31 g/ha: 31 g ai/ha; for Corn plant response rating (crop injury, 0 = no effect, 100 = complete kill) at 125 g/ha: 125 g ai/ha
# [5] = test system: barnyardgrass (Echinochloa crus-galli); assay: Test A postemergence, barnyardgrass; type: in vivo; conditions: Echinochloa crus-galli, post-emergence, 240 h, 0 to 100 scale (0 no effect, 100 complete control), read-out: Plant response rating, Barnyardgrass; for pest or weed control at 31 g/ha: 31 g ai/ha; for pest or weed control at 125 g/ha: 125 g ai/ha
# kochia (Kochia scoparia) [6] = assay: Test A postemergence, kochia; type: in vivo; conditions: Bassia scoparia, post-emergence, 240 h, 0 to 100 scale (0 no effect, 100 complete control), read-out: Plant response rating, Kochia; for pest or weed control at 31 g/ha: 31 g ai/ha; for pest or weed control at 125 g/ha: 125 g ai/ha
# [7] = test system: ducksalad (Heteranthera limosa); assay: Test B flooded paddy test, ducksalad; conditions: Heteranthera limosa, read-out: Plant response rating, Ducksalad (0 to 100 scale, 0 is no effect, 100 is complete control)
# [8] = test system: barnyardgrass (Echinochloa crus-galli); assay: Test B flooded paddy test, barnyardgrass; conditions: Echinochloa crus-galli, read-out: Plant response rating, Barnyardgrass (0 to 100 scale, 0 is no effect, 100 is complete control)
# [9] = test system: pigweed (Amaranthus retroflexus); assay: Test A postemergence, pigweed; type: in vivo; conditions: Amaranthus retroflexus, post-emergence, 240 h, 0 to 100 scale (0 no effect, 100 complete control), read-out: Plant response rating, Pigweed; for pest or weed control at 31 g/ha: 31 g ai/ha; for pest or weed control at 125 g/ha: 125 g ai/ha
# kochia (Kochia scoparia) [10] = assay: Test A preemergence, kochia; type: in vivo; conditions: Bassia scoparia, pre-emergence, 240 h, 0 to 100 scale (0 no effect, 100 complete control), read-out: Plant response rating, Kochia; for pest or weed control at 31 g/ha: 31 g ai/ha; for pest or weed control at 125 g/ha: 125 g ai/ha
# [11] = test system: ryegrass, Italian (Italian ryegrass, Lolium multiflorum); assay: Test A preemergence, ryegrass, Italian; type: in vivo; conditions: Lolium multiflorum, pre-emergence, 240 h, 0 to 100 scale (0 no effect, 100 complete control), read-out: Plant response rating, Ryegrass, Italian; for pest or weed control at 31 g/ha: 31 g ai/ha; for pest or weed control at 125 g/ha: 125 g ai/ha
# [12] = test system: ryegrass, Italian (Italian ryegrass, Lolium multiflorum); assay: Test A postemergence, ryegrass, Italian; type: in vivo; conditions: Lolium multiflorum, post-emergence, 240 h, 0 to 100 scale (0 no effect, 100 complete control), read-out: Plant response rating, Ryegrass, Italian; for pest or weed control at 31 g/ha: 31 g ai/ha; for pest or weed control at 125 g/ha: 125 g ai/ha
# [13] = test system: galium (catchweed bedstraw, Galium aparine); assay: Test A postemergence, galium; type: in vivo; conditions: Galium, post-emergence, 240 h, 0 to 100 scale (0 no effect, 100 complete control), read-out: Plant response rating, Galium; for pest or weed control at 31 g/ha: 31 g ai/ha; for pest or weed control at 125 g/ha: 125 g ai/ha
# [14] = test system: pigweed (Amaranthus retroflexus); assay: Test A preemergence, pigweed; type: in vivo; conditions: Amaranthus retroflexus, pre-emergence, 240 h, 0 to 100 scale (0 no effect, 100 complete control), read-out: Plant response rating, Pigweed; for pest or weed control at 31 g/ha: 31 g ai/ha; for pest or weed control at 125 g/ha: 125 g ai/ha
# [15] = test system: ragweed (common ragweed, Ambrosia elatior); assay: Test A preemergence, ragweed; type: in vivo; conditions: Ambrosia artemisiifolia, pre-emergence, 240 h, 0 to 100 scale (0 no effect, 100 complete control), read-out: Plant response rating, Ragweed; for pest or weed control at 31 g/ha: 31 g ai/ha; for pest or weed control at 125 g/ha: 125 g ai/ha
Compound,pest or weed control at 31 g/ha [1],pest or weed control at 125 g/ha [1],plant injury at 31 g/ha [2],plant injury at 125 g/ha [2],pest or weed control at 31 g/ha [3],pest or weed control at 125 g/ha [3],pest or weed control at 31 g/ha [4],pest or weed control at 125 g/ha [4],plant injury at 250 g/ha (rice (Oryza sativa)),"Corn plant response rating (crop injury, 0 = no effect, 100 = complete kill) at 31 g/ha (corn (Zea mays))","Corn plant response rating (crop injury, 0 = no effect, 100 = complete kill) at 125 g/ha (corn (Zea mays))",pest or weed control at 31 g/ha [5],pest or weed control at 125 g/ha [5],pest or weed control at 31 g/ha (kochia (Kochia scoparia) [6]),pest or weed control at 125 g/ha (kochia (Kochia scoparia) [6]),pest or weed control at 250 g/ha [7],pest or weed control at 250 g/ha [8],pest or weed control at 31 g/ha [9],pest or weed control at 125 g/ha [9],pest or weed control at 31 g/ha (kochia (Kochia scoparia) [10]),also measured
"O=C1CCC(CCCC(F)(F)F)c2c(Oc3ncc(Cl)cn3)cccc21 (stereo not drawn) [Compound 30, 5-[(5-Chloro-2-pyrimidinyl)oxy]-3,4-dihydro-4-(4,4,4-trifluorobutyl)-1(2H)-naphthalenone]",20%,60%,0%,20%,10%,10%,0%,40%,0%,30%,30%,20%,30%,10%,30%,85%,20%,70%,90%,0%,pest or weed control at 125 g/ha (kochia (Kochia scoparia) [10]): 0%; pest or weed control at 31 g/ha [11]: 0%; pest or weed control at 125 g/ha [11]: 10%; pest or weed control at 31 g/ha [12]: 30%; pest or weed control at 125 g/ha [12]: 30%; pest or weed control at 31 g/ha [13]: 30%; pest or weed control at 125 g/ha [13]: 80%; pest or weed control at 31 g/ha [14]: 10%; pest or weed control at 125 g/ha [14]: 60%; pest or weed control at 31 g/ha [15]: 0%; pest or weed control at 125 g/ha [15]: 0%
"O=C1OC(CCCCC(F)(F)F)Cc2c(Oc3ncc(Cl)cn3)cccc21 (stereo not drawn) [Compound 31, 5-[(5-Chloro-2-pyrimidinyl)oxy]-3,4-dihydro-3-(5,5,5-trifluoropentyl)-1H-2-benzopyran-1-one]",0%,0%,0%,0%,0%,0%,0%,0%,0%,0%,10%,20%,0%,10%,40%,0%,0%,40%,50%,0%,pest or weed control at 125 g/ha (kochia (Kochia scoparia) [10]): 0%; pest or weed control at 31 g/ha [11]: 0%; pest or weed control at 125 g/ha [11]: 0%; pest or weed control at 31 g/ha [12]: 0%; pest or weed control at 125 g/ha [12]: 0%; pest or weed control at 31 g/ha [13]: 0%; pest or weed control at 125 g/ha [13]: 30%; pest or weed control at 31 g/ha [14]: 0%; pest or weed control at 125 g/ha [14]: 0%; pest or weed control at 31 g/ha [15]: 0%; pest or weed control at 125 g/ha [15]: 0%
"FC(F)(F)CCC1OCCc2cccc(Oc3ncc(Cl)cn3)c21 (stereo not drawn) [Compound 32, 5-Chloro-2-[[3,4-dihydro-1-(3,3,3-trifluoropropyl)-1H-2-benzopyran-8-yl]oxy]pyrimidine]",10%,30%,0%,10%,0%,0%,0%,40%,0%,10%,20%,10%,20%,0%,10%,95%,0%,20%,40%,0%,pest or weed control at 125 g/ha (kochia (Kochia scoparia) [10]): 0%; pest or weed control at 31 g/ha [11]: 0%; pest or weed control at 125 g/ha [11]: 0%; pest or weed control at 31 g/ha [12]: 0%; pest or weed control at 125 g/ha [12]: 0%; pest or weed control at 31 g/ha [13]: 10%; pest or weed control at 125 g/ha [13]: 20%; pest or weed control at 31 g/ha [14]: 0%; pest or weed control at 125 g/ha [14]: 60%; pest or weed control at 31 g/ha [15]: 0%; pest or weed control at 125 g/ha [15]: 0%
